Measurements published in paper PMC11876601 (Molecular Systems Biology, 2025).
Blank lines part the entries; values can stand above or below the molecule they belong to.

What was measured:
[1] = biological target: PIP4K2C ; Q8TBX8;Q8TBX8-2;Q8TBX8-3 (Homo sapiens, UniProt Q8TBX8); test: biochemical; design: species or system AsPC-1; Kinobeads competition pulldown in AsPC-1 lysate with LC-MS/MS label-free quantification; apparent Kd
Experimental: (§1) This was followed by incubation with Kinobeads ε (17.5 µl of settled beads) for 30 min at 4 °C to enrich kinases. […] Enriched proteins were reduced with 50 mM DTT in 8 M urea, 40 mM Tris-HCl, pH 7.4 for 30 min at room temperature, and alkylated with 55 mM chloroacetamide. After reducing the urea concentration to 1–2 M, proteins were digested with trypsin at 37 °C for 16 h. Subsequently, eluted peptides were desalted using SepPak tC18 µElution plates (Waters), freeze-dried by vacuum centrifugation, and stored at −20 °C. Proteins were filtered by potential contaminants, reversed hits and proteins identified only by site. Residual binding of proteins was calculated from LFQ intensities as the ratio between drug doses and vehicle. […] Only kinases quantified with at least 4 unique peptides in the vehicle experiment were considered. Potential targets were further curated through manual inspection of dose-dependent reduction in MS/MS and unique peptide counts.

GSK3B ; P49841-2;P49841 = GSK3B ; P49841-2;P49841 (Homo sapiens, UniProt P49841); test: biochemical; design: species or system AsPC-1; Kinobeads competition pulldown in AsPC-1 lysate with LC-MS/MS label-free quantification; apparent Kd
Sequence of GSK3B ; P49841-2;P49841 (P49841 whole entry): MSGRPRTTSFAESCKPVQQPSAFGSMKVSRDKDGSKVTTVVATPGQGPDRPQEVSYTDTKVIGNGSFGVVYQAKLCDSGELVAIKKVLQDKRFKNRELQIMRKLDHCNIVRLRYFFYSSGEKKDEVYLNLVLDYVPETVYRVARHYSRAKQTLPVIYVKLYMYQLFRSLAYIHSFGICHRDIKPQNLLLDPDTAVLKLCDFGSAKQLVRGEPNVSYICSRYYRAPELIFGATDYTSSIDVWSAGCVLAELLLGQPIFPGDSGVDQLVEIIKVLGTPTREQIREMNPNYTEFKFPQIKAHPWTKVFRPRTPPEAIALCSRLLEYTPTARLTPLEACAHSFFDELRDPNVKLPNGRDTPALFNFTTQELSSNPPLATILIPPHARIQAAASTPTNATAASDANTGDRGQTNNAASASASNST
Experimental: as §1

BTK = biological target: BTK; design: method as in Reinecke et al. (2023); details: 5 cell line mix lysate, Kinobeads ε, ref Reinecke et al. (2023), cited from earlier work
CAMKK2 = system: CAMKK2; design: method as in Reinecke et al. (2023); details: CAMKK2, 5 cell line mix lysate, Kinobeads ε, ref Reinecke et al. (2023), cited from earlier work
PLK1 = system: PLK1; design: method as in Reinecke et al. (2023); details: PLK1, 5 cell line mix lysate, Kinobeads ε, ref Reinecke et al. (2023), cited from earlier work
PRKAB2 = system: PRKAB2; design: method as in Reinecke et al. (2023); details: PRKAB2, 5 cell line mix lysate, Kinobeads ε, ref Reinecke et al. (2023), cited from earlier work
PRKAG1 = system: PRKAG1; design: method as in Reinecke et al. (2023); details: PRKAG1, 5 cell line mix lysate, Kinobeads ε, ref Reinecke et al. (2023), cited from earlier work
PIK3C2A = PIK3C2A (Homo sapiens, UniProt O00443); test: biochemical
Sequence of PIK3C2A (O00443 whole entry): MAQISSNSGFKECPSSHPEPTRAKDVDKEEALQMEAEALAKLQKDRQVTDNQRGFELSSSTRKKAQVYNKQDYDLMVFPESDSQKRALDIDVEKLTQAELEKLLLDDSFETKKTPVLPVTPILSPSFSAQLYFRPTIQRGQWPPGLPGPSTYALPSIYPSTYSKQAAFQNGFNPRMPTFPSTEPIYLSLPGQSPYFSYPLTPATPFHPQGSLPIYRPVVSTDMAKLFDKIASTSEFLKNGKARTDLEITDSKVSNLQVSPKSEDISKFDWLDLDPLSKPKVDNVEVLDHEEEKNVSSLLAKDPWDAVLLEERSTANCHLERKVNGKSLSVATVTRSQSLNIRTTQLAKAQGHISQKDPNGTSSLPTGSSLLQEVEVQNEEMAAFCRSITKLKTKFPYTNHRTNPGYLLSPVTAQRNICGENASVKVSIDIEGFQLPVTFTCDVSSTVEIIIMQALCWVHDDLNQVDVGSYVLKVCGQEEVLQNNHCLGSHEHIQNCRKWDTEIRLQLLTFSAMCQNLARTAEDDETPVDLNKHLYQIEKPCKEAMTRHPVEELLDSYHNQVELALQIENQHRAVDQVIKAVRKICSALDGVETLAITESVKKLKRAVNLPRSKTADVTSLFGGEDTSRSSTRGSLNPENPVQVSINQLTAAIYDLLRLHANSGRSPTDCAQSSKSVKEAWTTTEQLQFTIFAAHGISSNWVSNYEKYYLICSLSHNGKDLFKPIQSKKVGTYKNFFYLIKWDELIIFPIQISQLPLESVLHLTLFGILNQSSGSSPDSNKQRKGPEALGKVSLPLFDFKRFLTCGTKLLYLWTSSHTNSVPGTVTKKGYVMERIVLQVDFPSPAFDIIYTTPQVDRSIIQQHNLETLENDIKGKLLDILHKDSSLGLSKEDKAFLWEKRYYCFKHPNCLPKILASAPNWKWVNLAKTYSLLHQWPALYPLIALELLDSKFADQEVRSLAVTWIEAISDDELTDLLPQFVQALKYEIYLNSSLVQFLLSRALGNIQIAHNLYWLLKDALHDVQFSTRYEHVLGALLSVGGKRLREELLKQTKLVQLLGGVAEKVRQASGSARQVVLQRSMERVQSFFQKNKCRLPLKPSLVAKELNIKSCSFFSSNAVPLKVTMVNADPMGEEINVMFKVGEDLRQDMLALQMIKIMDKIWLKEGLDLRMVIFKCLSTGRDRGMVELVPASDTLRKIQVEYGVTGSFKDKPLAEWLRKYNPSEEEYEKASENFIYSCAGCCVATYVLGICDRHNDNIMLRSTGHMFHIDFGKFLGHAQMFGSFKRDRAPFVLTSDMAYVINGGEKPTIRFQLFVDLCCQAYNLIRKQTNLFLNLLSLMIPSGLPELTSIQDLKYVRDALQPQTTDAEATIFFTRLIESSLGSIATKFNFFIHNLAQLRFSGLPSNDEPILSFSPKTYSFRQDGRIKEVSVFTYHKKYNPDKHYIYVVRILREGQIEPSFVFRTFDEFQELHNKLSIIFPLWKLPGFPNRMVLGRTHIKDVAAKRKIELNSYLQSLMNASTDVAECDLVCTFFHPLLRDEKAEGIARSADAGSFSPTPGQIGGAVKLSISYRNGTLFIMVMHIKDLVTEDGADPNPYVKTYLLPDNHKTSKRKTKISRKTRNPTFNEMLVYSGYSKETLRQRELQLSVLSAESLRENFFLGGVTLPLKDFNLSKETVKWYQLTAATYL
Experimental: (§2) This was followed by incubation with Kinobeads ε (17.5 µl of settled beads) for 30 min at 4 °C to enrich kinases. […] Enriched proteins were reduced with 50 mM DTT in 8 M urea, 40 mM Tris-HCl, pH 7.4 for 30 min at room temperature, and alkylated with 55 mM chloroacetamide. After reducing the urea concentration to 1–2 M, proteins were digested with trypsin at 37 °C for 16 h. Subsequently, eluted peptides were desalted using SepPak tC18 µElution plates (Waters), freeze-dried by vacuum centrifugation, and stored at −20 °C.
(§3) For LC-MS/MS, dried peptides were reconstituted in 0.1% formic acid and analyzed on a Dionex Ultimate3000 nano HPLC (Thermo Scientific) coupled to an Orbitrap Fusion Tribrid mass spectrometer (Thermo Scientific), which was run in data-dependent mode. […]
(§4) Oxidized methionine and N-terminal acetylation were set as variable modification, and cysteine carbamidomethylation was set as fixed modification. Label-free quantification (LFQ) and match-between-runs were enabled. […]
(§5) Proteins were filtered by potential contaminants, reversed hits and proteins identified only by site. Residual binding of proteins was calculated from LFQ intensities as the ratio between drug doses and vehicle. […] Only kinases quantified with at least 4 unique peptides in the vehicle experiment were considered. […]

AXL ; P30530-2;P30530 = AXL ; P30530-2;P30530 (Homo sapiens, UniProt P30530); test: biochemical; design: species or system AsPC-1; Kinobeads competition pulldown in AsPC-1 lysate with LC-MS/MS label-free quantification; apparent Kd
Sequence of AXL ; P30530-2;P30530 (P30530 whole entry): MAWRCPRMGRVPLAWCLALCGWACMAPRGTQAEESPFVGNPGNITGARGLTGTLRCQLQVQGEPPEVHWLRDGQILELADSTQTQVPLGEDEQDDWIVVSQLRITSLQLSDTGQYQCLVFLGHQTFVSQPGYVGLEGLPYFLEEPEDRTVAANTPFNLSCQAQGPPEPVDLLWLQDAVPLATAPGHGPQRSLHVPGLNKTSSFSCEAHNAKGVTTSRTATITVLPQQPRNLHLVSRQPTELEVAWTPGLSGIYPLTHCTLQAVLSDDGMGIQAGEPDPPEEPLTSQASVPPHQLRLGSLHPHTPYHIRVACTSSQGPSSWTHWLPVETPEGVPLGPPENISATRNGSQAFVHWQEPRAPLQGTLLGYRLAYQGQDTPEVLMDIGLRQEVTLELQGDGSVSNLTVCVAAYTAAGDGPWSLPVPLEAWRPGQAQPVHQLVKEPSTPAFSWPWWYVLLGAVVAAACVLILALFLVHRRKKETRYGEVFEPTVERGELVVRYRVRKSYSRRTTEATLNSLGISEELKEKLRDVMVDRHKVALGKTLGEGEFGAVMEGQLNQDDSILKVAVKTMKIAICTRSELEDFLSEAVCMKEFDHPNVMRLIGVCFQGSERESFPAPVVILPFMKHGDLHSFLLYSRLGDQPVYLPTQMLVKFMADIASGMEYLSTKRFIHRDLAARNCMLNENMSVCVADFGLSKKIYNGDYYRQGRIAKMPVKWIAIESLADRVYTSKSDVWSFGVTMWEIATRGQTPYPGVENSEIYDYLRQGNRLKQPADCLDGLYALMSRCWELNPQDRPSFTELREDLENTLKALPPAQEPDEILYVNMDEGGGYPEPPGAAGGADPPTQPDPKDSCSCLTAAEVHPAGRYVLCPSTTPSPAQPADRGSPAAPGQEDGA
Experimental: as §1

CDC42BPG ; Q6DT37 = CDC42BPG ; Q6DT37 (Homo sapiens, UniProt Q6DT37); test: biochemical; design: species or system AsPC-1; Kinobeads competition pulldown in AsPC-1 lysate with LC-MS/MS label-free quantification; apparent Kd
Sequence of CDC42BPG ; Q6DT37 (Q6DT37 whole entry): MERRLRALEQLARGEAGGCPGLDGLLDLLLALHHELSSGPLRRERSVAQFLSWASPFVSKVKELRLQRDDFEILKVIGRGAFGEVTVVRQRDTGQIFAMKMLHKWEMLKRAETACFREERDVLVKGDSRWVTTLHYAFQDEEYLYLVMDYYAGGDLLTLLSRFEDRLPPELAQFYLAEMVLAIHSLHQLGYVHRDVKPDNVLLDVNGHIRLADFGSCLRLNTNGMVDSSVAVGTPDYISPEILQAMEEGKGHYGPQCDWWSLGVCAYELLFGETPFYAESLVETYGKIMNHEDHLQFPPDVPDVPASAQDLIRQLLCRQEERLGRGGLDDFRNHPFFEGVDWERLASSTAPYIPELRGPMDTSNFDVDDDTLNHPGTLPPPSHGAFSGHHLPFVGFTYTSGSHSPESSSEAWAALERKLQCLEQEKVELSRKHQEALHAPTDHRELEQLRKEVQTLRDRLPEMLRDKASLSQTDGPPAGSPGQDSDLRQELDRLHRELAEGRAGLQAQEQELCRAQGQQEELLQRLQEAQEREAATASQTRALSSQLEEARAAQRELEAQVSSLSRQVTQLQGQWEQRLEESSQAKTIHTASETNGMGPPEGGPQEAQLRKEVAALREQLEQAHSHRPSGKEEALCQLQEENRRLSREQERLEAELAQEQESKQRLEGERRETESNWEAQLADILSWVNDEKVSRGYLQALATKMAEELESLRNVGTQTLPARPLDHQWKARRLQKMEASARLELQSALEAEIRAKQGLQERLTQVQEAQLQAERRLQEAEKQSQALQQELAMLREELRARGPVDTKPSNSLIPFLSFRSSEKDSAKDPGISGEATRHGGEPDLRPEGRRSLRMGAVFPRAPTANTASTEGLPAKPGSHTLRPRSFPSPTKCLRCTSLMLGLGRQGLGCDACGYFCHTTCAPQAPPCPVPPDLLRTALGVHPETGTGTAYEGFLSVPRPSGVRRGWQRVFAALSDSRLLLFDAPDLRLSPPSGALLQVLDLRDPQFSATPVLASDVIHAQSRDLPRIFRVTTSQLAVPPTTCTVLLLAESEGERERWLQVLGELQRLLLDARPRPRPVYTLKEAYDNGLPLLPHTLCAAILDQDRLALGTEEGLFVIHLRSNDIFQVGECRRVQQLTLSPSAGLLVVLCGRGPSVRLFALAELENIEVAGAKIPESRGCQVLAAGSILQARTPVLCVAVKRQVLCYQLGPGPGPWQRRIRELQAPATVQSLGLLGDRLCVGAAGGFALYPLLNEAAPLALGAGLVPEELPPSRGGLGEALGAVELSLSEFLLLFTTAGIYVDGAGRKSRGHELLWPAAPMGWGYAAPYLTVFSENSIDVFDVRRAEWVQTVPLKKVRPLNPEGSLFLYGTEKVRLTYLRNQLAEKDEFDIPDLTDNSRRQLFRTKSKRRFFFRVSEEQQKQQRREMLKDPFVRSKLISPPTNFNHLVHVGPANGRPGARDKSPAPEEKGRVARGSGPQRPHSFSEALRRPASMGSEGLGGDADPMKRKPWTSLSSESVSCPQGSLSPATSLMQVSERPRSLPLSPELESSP
Experimental: as §1

[2] = biological target: CIT ; O14578-4;O14578;O14578-2 (Homo sapiens, UniProt O14578); test: biochemical; design: species or system AsPC-1; Kinobeads competition pulldown in AsPC-1 lysate with LC-MS/MS label-free quantification; apparent Kd
Experimental: as §1

[3] = biological target: CDK10 ; Q15131;Q15131-5;Q15131-2;Q15131-6;Q15131-4;Q15131-3;Q15131-7 (Homo sapiens, UniProt Q15131); test: biochemical; design: species or system AsPC-1; Kinobeads competition pulldown in AsPC-1 lysate with LC-MS/MS label-free quantification; apparent Kd
Sequence of CDK10 ; Q15131;Q15131-5;Q15131-2;Q15131-6;Q15131-4;Q15131-3;Q15131-7 (Q15131 whole entry): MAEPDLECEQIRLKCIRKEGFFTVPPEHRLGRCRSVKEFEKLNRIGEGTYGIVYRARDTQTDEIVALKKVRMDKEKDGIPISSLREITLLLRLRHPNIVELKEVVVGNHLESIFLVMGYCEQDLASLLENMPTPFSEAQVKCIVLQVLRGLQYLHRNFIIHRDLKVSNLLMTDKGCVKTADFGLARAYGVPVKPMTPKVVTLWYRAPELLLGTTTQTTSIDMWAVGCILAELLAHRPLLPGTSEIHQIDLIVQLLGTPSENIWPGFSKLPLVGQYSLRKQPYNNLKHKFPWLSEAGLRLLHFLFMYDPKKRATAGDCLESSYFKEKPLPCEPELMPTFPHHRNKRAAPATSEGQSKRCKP
Experimental: as §1

[4] = biological target: several subunits of CSNK2; test: Kinobeads competition pulldown in AsPC-1 lysate; assay type: binding, human; details: read-out: KDapp
Experimental: as §2, §3, §4, §5

Compound: CNCc1ccc(-c2cc(-c3nc(-c4ccc(S(=O)(=O)C(C)C)cc4)cnc3N)on2)cc1 [Berzosertib]
Kd [1]: 21.4 nM
Kd (GSK3B ; P49841-2;P49841): 33.2 nM

Compound: COc1cc(N2CCC(N3CCN(C)CC3)CC2)ccc1Nc1ncc(Cl)c(Nc2ccccc2P(C)(C)=O)n1 [Brigatinib]
Kd (BTK; read-out: KDapp): 1480 nM
EC50 (BTK): 3780 nM
pKDapp (BTK): 5.83
EC50 (CAMKK2): 60.9 nM
pKDapp (CAMKK2): 7.39
Kd (CAMKK2; read-out: KDapp): 40.4 nM
EC50 (PLK1): 1100 nM
pKDapp (PLK1): 5.99
Kd (PLK1; read-out: KDapp): 1010 nM
EC50 (PRKAB2): 546 nM
pKDapp (PRKAB2): 6.48
Kd (PRKAB2; read-out: KDapp): 328 nM
EC50 (PRKAG1): 559 nM
pKDapp (PRKAG1): 6.45
Kd (PRKAG1; read-out: KDapp): 354 nM

Compound: C[C@@H]1COCCN1c1cc(-c2ccnn2C)c2ccnc(-c3ccn[nH]3)c2n1 [Elimusertib]
EC50 (PIK3C2A): 936 nM
Kd (PIK3C2A; KDapp, AsPC-1 lysate): 426 nM

Kd (AXL ; P30530-2;P30530): 473 nM
Kd (CDC42BPG ; Q6DT37): 16.9 nM
Kd [2]: 40 nM
Kd [3]: 153 nM
Kd [4]: 10 to 20 nM
Compound: Nc1nn2cc(F)cnc2c1C(=O)Nc1cncc(F)c1N1CCC(C(=O)N2CCN(C3COC3)CC2)CC1 [Gartisertib]
